Results: patent publication US8178509B2, “Method to treat sickle cell disease” (University of Virginia Patent Foundation, priority 2006, dated 2012)

Key:
NY-S (NY1DD) mice [1] = test: Unrestrained whole-body plethysmography during hypoxic stress; format: in vivo; conditions: 3 hour hypoxic stress (8% O2), Alzet pump, 10 ng/kg/min, overnight
Method: Clinicians have disclosed that breathing disorders can occur in SCD patients during vaso-occlusive crisis (VOC). […] Pain-associated shallow breathing during sickle crisis may contribute to the pathogenesis of acute chest syndrome. To characterize the extent of hypoxia-induced lung injury in NY-S (NY1DD) mice, pulmonary function was assessed using unrestrained whole-body plethysmography during and after exposure to hypoxic air. Naïve NY-S (NY1DD) mice were compared to NY-S (NY1DD) mice which had been treated with ATL146e (Alzet pump, 10 ng/kg/min, overnight). […] Plexiglas chambers (4 in diameter) are connected to a direct airflow sensor (Buxco Max II, Buxco Electronics). Constant airflow through the chambers is maintained at 70 ml/min. The flow signals are amplified by a channel amplifier (EMKA Technologies), converted to a digital signal, and recorded using IOX software (EMKA Technologies). The respiratory parameters minute ventilation (MV, ml/min), respiratory frequency (f, breaths/min), expiratory time (TE, msec), and relaxation time (RT, msec) are calculated and plotted as change over time. The chambers are calibrated by injecting 1 ml of air. The mice are placed unrestrained into the chambers and after a 30 min adjustment period, respiratory activity is recorded while the animal breathes either ambient air or hypoxic gas (8% O2).

NY-S (NY1DD) mice [2] = test: Pulmonary histology (H&E), hypoxia-induced vascular congestion; format: in vivo; conditions: 3 hour hypoxia (10% O2); Alzet mini-pump, 10 ng/kg/min, overnight, started prior to hypoxic stress
Method: Under normoxic conditions, while the lungs of the wild type mice are clear, there is a high incidence of focal vascular congestion in the NY-S (NY1DD) mice (FIGS. 6A & 6B, see arrows). The disseminated pink color throughout the section may be due to elevated numbers of possibly adherent capillary red cells. The extent of vascular congestion is exacerbated in the NY-S (NY1DD) mice following 3 hour of hypoxia (10% O2; FIG. 6c). The increased susceptibility of the NY-S (NY1DD) mice to hypoxia-induced lung injury is evidenced both as an increase in the total area of involvement and the size of the vessels congested (see arrow, FIG. 6C).

NY-S (NY1DD) mice [3] = test: Gamma camera imaging of hypoxia-sensitive tracer BRU59-21 in lungs; format: in vivo; conditions: 3 hours hypoxia (10% O2)/1 hour reoxygenation; Alzet mini-pump, 10 ng/kg/min, O/N; untreated vs treated
Method: Animals were subject to 3 hours hypoxia (10% O2)/1 hour reoxygenation. After 30 minutes of reoxygenation the mice were given a bolus intra-jugular injection of BRU59-21 (˜300 μCi). At the end of the reoxygenation period planar gamma camera images were taken with a ten minute acquisition window. The images in FIG. 7 show tracer accumulation in the tissues of hypoxic C57BL/6 and NY-S (NY1DD) mice. […] There is a large non-specific signal present in the abdomen due to hepatic metabolism and clearance of the tracer via the intestinal tract. Anterior to the abdominal signal is a bilateral signal which is absent from the C57/B6 mice and localized to the lungs in the NY-S (NY1DD) mouse.
C57BL/6 and NY-S (NY1DD) mice were subject to 3 hour hypoxia/1 hour reperfusion (10% O2). Thirty minutes after the start of the reperfusion period the mice were anesthetized (ketamine 125 mg/kg; xylazine 12.5 mg/kg, IP) and given a bolus intra jugular injection of BRU59-21 (˜300 μCi). At the end of the reperfusion period planar gamma camera images were collected. Anesthetized mice were imaged side-by-side in planar mode directly on the inverted face of a low energy, high resolution (LEHR) collimator mounted on a Siemens Orbiter gamma camera (Siemens Medical Solutions USA, Inc., Malvern Pa.). […]

[4] = tested on: leukocyte interactions with the endothelium; test: Intravital microscopy of exteriorized cremaster muscle, leukocyte adhesion; format: in vivo, NY-S (NY1DD) mice; conditions: no hypoxia
From the text: An exteriorized cremaster muscle preparation was used to study the microcirculation in vivo as a means of assaying the effect of the test compounds, e.g., ATL146e, on leukocyte interactions with the endothelium. […] In this experiment, mice were not stressed with hypoxia, but the manipulation of the cremaster tissue for microscopic examination itself produces some rolling and adherence of leukocytes, probably due to release of chemokines from damaged tissue. Adherent leukocytes were defined as those which moved less than one circumference in an observational period (30 seconds/vessel). […]
Microscopic observations were made on a Zeiss intravital microscope (Axioskop, Carl Zeiss, Inc., Thomwood, N.Y.) with a saline immersion objective (SW 40/0.75) visualized under bright field illumination. […] Randomly selected venules with diameters between 19 and 54 μm were recorded for 1.5 minutes.
A MicroMotion DC30 video compression card (Pinnacle Systems, Mountain View, Calif.) was used to digitize video recordings from a JVC HR-53600U VHS recorder into a Macintosh computer (Adobe Premiere software). Digitized video clips were analyzed with the public domain NIH image program with custom-written macros. […] Individual comparisons between groups were calculated using a one-tailed t test with p<0.05.

platelets = test: Platelet aggregation (singlet loss) in platelet-rich plasma after in vivo pretreatment, ADP activation; parameters: species or system NY-S (NY1DD) mice; conditions: pretreated in vivo, Alzet mini-pump, 10 ng/kg/min, O/N; all doses of ADP added in vitro
Method: Adenosine 5′-diphosphate (ADP) is a critical mediator of platelet activation. Two members of the P2Y-receptor family (P2Y1, P2Y12) are responsible for the initiation and amplification of the aggregation response.
Mice were first anesthetized with the use of a vaporizer (Vapomatic, A.M. Bickford, INC., Wales Center, N.Y.) delivering 1.5% isoflurane (Abbott Laboratories, Chicago, Ill.). The animals were ventilated with 100% oxygen (tidal volume 0.3 mL; rate 125 breaths/min; respiratory/expiratory ratio 1; positive end-expiratory pressure (PEEP) was between 5 and 10 cm H2O) at a low rate of 0.8 L/min via an animal ventilator (Columbus Instruments, Columbus, Ohio).
Platelet isolation. […]
Platelet aggregation assay—single particle counting. […] The reaction was quenched with glutaraldehyde (1%), and platelet aggregation then evaluated by the loss of platelet singlets, using a resistive-particle counter. The loss of platelet singlets was expressed as a percent value of the control platelet count (platelet count in PRP incubated for 10 minutes in 37° C. in the absence of shear forces).

C57BL/6 MAECs = test: Static WEHI monocyte adhesion assay on murine aortic endothelial cells; format: cell-based, C57BL/6 mice; conditions: murine TNFα 10 U/ml, positive control
Method: Adhesion of both sickle RBCs and leukocytes in SCD is believed dependent on endothelial activation. […] Murine aortic endothelial cells (MAECs) were prepared from C57BL/6 and NY-S (NY1DD) mice. In a static adhesion assay using WEHI monocytes activation of the endothelium as manifested by increasing monocyte adhesion can be quantified. MAECs prepared from C57BL/6 mice form a monolayer which is not highly activated as assessed by the small number of adherent monocytes. As a positive control for endothelial activation C57BL/6 MAECs were stimulated with murine TNFα (10 U/ml). […] Clearly, the endothelium of NY-S (NY1DD) sickle mice is in a state of activation at baseline.
Aortic endothelial cells from C57BL/6J and NY-S (NY1DD) mice were harvested from the aorta under sterile conditions. A monocyte adhesion assay that utilizes primary MAECs and WEHI78/24 cells were performed according to Hatley et al. WEHI cells are labeled with calcein-AM using standard methods described by the manufacturer (Molecular Probes). For the adhesion assay, MAECs were cultured to confluency in a 48-well plate and incubated with 35,000 calcein-labeled WEHI cells/well for 30 min at 37° C. Non-adherent cells were rinsed, and adherent cells were fixed with 1% glutaraldehyde. The number of adherent monocytes within a 10×10 eyepiece grid at 40× magnification was counted using an epifluorescence microscopy. […]

Compound	minute volume (NY-S (NY1DD) mice [1])	breathing frequency (NY-S (NY1DD) mice [1]; n=2 each group)	severity of hypoxia-induced vascular congestion in lung (NY-S (NY1DD) mice [2])	lung-specific BRU59-21 signal intensity in thoracic cavity (qualitative) (NY-S (NY1DD) mice [3])	leukocyte adhesion (adherent leukocytes/field) ([4]; bolus injection, intraperitoneal, 5 μg/kg, 30 minutes prior to cremaster exteriorization)	leukocyte adhesion (adherent leukocytes/field) ([4]; infusion, Alzet mini-pump, 10 ng/kg/min, overnight)	platelet activation in platelet rich plasma (platelets)	number of monocytes captured (endothelial activation) (C57BL/6 MAECs)
CCNC(=O)C1OC(n2cnc3c(N)nc(C#CCC4CCC(C(=O)OC)CC4)nc32)C(O)C1O (centres unmarked) [ATL146e, 4-{3-[6-Amino-9-(5-ethylcarbamoyl-3,4-dihydroxy-tetrahydro-furan-2-yl)-9H-purin-2-yl]-prop-2-ynyl}cyclohexanecarboxylic acid methyl ester]	respiratory stress of hypoxia was alleviated	significantly reduced	significantly reduced	significantly more lung-specific signal in the untreated mice	pronounced reduction in leukocyte adhesion	pronounced reduction in leukocyte adhesion	reduced to below control levels	
TNFα								three-fold increase
